Measured values taken from paper PMC12152945, “Computational Design of Lysine Targeting Covalent Binders Using Rosetta” (Journal of Chemical Information and Modeling, 2025).

Experiments:
[1] = target: T1, MKK7 kinase domain (Homo sapiens, UniProt O14733); assay: intact protein LC/MS; format: binding; details: covalent, reversible imine trapped with 5 mM NaBH4; 2 μM protein, HEPES pH 7.5, overnight 4 °C
T1 construct: gene MAP2K7; His-tagged kinase domain for intact-protein LC/MS
T1 sequence (O14733 117-419 limits assumed): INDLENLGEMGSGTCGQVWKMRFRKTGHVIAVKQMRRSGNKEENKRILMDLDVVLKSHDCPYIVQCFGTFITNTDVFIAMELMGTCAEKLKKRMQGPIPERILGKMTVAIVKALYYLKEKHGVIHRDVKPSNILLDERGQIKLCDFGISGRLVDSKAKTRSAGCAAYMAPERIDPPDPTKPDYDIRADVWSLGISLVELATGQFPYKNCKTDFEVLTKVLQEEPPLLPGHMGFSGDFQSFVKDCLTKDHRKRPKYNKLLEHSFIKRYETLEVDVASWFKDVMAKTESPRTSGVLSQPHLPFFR

[2] = target: T2, MKK7 (Homo sapiens, UniProt O14733); assay: radiometric […] kinase assay ([…]PanQinase); format: biochemical; details: 3 μM ATP, 75.6 nM MKK7, JNK1 K55R K56R substrate; 3 mM MgCl2, 3 mM MnCl2, pH 7.5, 30 °C; 30 min preincubation; reversible covalent (imine, Lys221)
T2 construct: gene MAP2K7; GST or His-tagged kinase from Reaction Biology (33PanQinase assay)
T2 sequence (O14733 2-419): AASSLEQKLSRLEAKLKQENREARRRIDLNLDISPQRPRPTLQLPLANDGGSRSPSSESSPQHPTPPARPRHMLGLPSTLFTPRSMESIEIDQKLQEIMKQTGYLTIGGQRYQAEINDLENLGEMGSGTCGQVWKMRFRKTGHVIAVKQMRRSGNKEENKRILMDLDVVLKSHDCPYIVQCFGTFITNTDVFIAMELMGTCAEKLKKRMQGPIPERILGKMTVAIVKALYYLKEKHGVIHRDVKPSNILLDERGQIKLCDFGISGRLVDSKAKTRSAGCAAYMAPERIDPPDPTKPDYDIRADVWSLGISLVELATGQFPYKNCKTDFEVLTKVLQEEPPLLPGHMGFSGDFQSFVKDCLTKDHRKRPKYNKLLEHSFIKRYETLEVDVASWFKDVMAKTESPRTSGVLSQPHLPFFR

- IC50 [2]: 738 nM
Compound: O=Cc1ccc(-c2n[nH]c3ccccc23)cc1O [compound 1]
- intact protein LC/MS [1]: Significant labeling was detected only after the reduction of the complex
